Measured values: US5801270A, “Amine derivative and detergent composition containing the same” (Kao Corporation, priority 1993, dated 1998)

Tests used:
[1] = Irritativeness and feeling of the compound on the user's skin and hair; settings: in words
[2] = Cytotoxic effect on SIRC cells (Giemsa stain, 48 hours); assay type: cell-based, rabbit; settings: rabbit, 48 hours culture, 655 nm, read-out: IC50
Method: (§1) The cytotoxic effect of the compounds according to the present invention was tested in accordance with the following method.
(§2) Four days prior to exposure to a substance to be tested, SIRC cells (established cell line of fibroblasts in the epithelial parenchymal layer of a rabbit eye) were disseminated on a 96-well plate in a concentration of 3×10^3 cells/well to culture them under conditions of 37° C. and 5% CO2.
(§3) The test substance was dissolved in physiological saline to give a concentration of 1 wt. % or 10 wt. %. This solution was diluted with a culture medium. After the thus-obtained test solution was added to the culture solution to conduct culture for 48 hours, the culture solution was washed twice with PBS (pH 7.4) and fixed in methanol to stain with a Giemsa stain. After washing and drying, a mixture of 1N HCl/ethanol (1/9) was added to extract the stained solution, followed by measurement by means of a microplate reader (655 nm). The concentration at which […] was expressed as IC50 (ppm).

SIRC cells = test: as above; assay type: cell-based, rabbit; settings: 48 hours culture, 655 nm
Method: as §1, §2, §3

Compound: CCCCCCCCN(CC(O)CN(CCCCCCCC)C(=O)CCC(=O)[O-])CC(O)CN(CCCCCCCC)C(=O)CCC(=O)[O-].[Na+].[Na+] (stereo not drawn)
- irritativeness [1]: low

Compound: CCCCCCCCN(CC(O)CN(CCCCCCCC)C(=O)CC(C(=O)O)S(=O)(=O)[O-])CC(O)CN(CCCCCCCC)C(=O)CC(C(=O)O)S(=O)(=O)[O-].[Na+].[Na+] (stereo not drawn)
- irritativeness [1]: low

Compound: 6-butyl-4,8-dihydroxy-2,10-dioctyl-2,6,10-triaza-1,1,11,11-undecanetetracarboxylic acid [Example 12]
- irritativeness [1]: low

Compound: CCCCCCCCN(CC(=O)O)CC(O)CN(CCCC)CC(O)CN(CCCCCCCC)CC(=O)O (stereo not drawn) [Example 8, 6-butyl-4,8-dihydroxy-2,10-dioctyl-2,6,10-triaza-1,11-undecanedicarboxylicacid]
- irritativeness [1]: low

Compound: CCCCCCCCCCCCN(CCOS(=O)(=O)O)CC(CN(CCCCCCCCCCCC)CC(CN(CCCCCCCCCCCC)CCOS(=O)(=O)O)OS(=O)(=O)O)OS(=O)(=O)O (stereo not drawn) [Example 10, sodium 3,7,11-tridodecyl-3,7,11-triaza-1,5,9,13-tridecanetetrasulfate]
- irritativeness [1]: low
- CC50 at 48 h [2]: 790 µg/mL

Compound: CCCCCCCCCCCCN(CCOS(=O)(=O)O)CC(CN(CCCCCCCCCCCC)CC(CN(CCCCCCCCCCCC)CC(CN(CCCCCCCCCCCC)CC(CN(CCCCCCCCCCCC)CCOS(=O)(=O)O)OS(=O)(=O)O)OS(=O)(=O)O)OS(=O)(=O)O)OS(=O)(=O)O (stereo not drawn) [Example 11, sodium 3,7,11,15,19-pentadodecyl-3,7,11,15,19-pentaaza-1,5,9,13,17,21-heneicosanehexasulfate]
- irritativeness [1]: low
- IC50 (SIRC cells): > 1000 ppm

Compound: CCCCCCCCCCCCOS(=O)(=O)[O-].[Na+] [Sodium dodecyl sulfate, reference compound]
- CC50 at 48 h [2]: 82 µg/mL
